# Like-named read-outs stand apart in the source and are kept apart here.
# Tests used:
# mIDH1R132H [1] = target: T1, mIDH1R132H (Homo sapiens, UniProt O75874, R132H); conditions: cited from earlier work
# T1 construct: purchased BPS Bioscience, San Diego, CA, USA
# [2] = lipophilicity by shake-flask method (n-octanol/water or PBS); assay type: physicochemical; conditions: triplicate; for logD: n-octanol/PBS pH 7.4, shake-flask, read-out: logD7.4 Exp. Determined; for logP: n-octanol/water, shake-flask
# Protocol: As a measure for the lipophilicity of the four radiolabeled probes, their partition coefficients (logP) and distribution coefficients at pH 7.4 (logD7.4) were determined by the shake-flask method. Table 1 summarizes the results of these experiments and compares them with the predicted logD7.4 values calculated using the ADMETlab platform.
# A solution of the corresponding radiotracer in DMSO (1 µL) was added to a mixture of n-octanol and PBS (pH = 7.4) or water (750 µL of each) in a 2 mL Eppendorf vial and the vial was vortexed for 2 min and centrifuged for another 2 min to separate the two phases. A total of 300 µL of the upper n-octanol phase was then carefully removed from the top, while 300 µL of the aqueous phase was removed by piercing the bottom of the vial with a syringe and cannula to avoid contact with the organic phase. Both fractions were transferred into fresh vials and counted in a gamma counter to determine the ratio between the activity in the organic and the aqueous phase. All measurements were performed in triplicate and the results are expressed as mean ± standard deviation of the logarithm of the partition coefficient between n-octanol and water (logP) or the logarithm of the distribution coefficient between n-octanol and PBS (logD7.4), respectively.
# U87-mIDH cells = experiment: cellular uptake in U87-mIDH cells; assay type: cell-based, human; conditions: U87-mIDH cells; for cellular uptake: incubation 1 h
# Protocol: (§1) Consistent with this assumption, uptake of [^18F]4 and, to a lesser extent, the ^18F-fluoroethoxylated analog [^18F]5 by both cell lines was considerably higher than that of (S)-[^18F]2.
# (§2) Human glioblastoma cells with a c.395G>A knock-in mutation encoding mIDH1R132H (HTB-14IG™) and the corresponding wildtype cells (HTB-14™) were purchased from the American Type Culture Collection (ATCC). The cells were grown under standard culture conditions (5% CO2 and 95% air at 37 °C) in Eagle’s Minimum Essential Medium (MEM) supplemented with 10% fetal bovine serum (FBS) and antibiotics (penicillin–streptomycin mixed solution, Gibco, Thermo Fisher Scientific, Oberhausen, Germany).
# (§3) For the cellular uptake studies, 1.5 × 10^5 cells were seeded into gelatin-coated 12-well transwell plates and incubated in 1 mL MEM (without FBS and antibiotics) containing 18.5 kBq (0.5 µCi) of the corresponding radiotracer. After incubation at 21 °C for 1 h, the supernatant was collected, the cells were lysed with 40 mM NaOH and the radioactivity of both fractions was measured with a gamma counter. The total protein concentration of the cell lysate was measured by a bicinchoninic acid (BCA) assay. The radiotracer uptake was calculated as the ratio of radioactivity in the cell fraction and the supernatant and normalized by protein content (% uptake/100 µg protein). Statistical analysis of the results was performed with Originlab Pro 2023b using two-tailed t-tests with a significance level of 0.05 to identify significant differences between groups.
# U87-WT cells = experiment: cellular uptake in U87-WT cells; assay type: cell-based, human; conditions: incubation 1 h
# Protocol: as §1, §2, §3
# mIDH1R132H [3] = target: T1, mIDH1R132H; experiment: enzymatic inhibition assay with commercial IDH1 (R132H) kit; assay type: biochemical; conditions: for Amax (fit parameter) / Amin (fit parameter) / Hill slope: Hill fit; for Amax (fit parameter) / Amin (fit parameter) / Hill slope / IC50: parentheses = 95% CI; for IC50: non-labeled compounds, n = 3, read-out: IC50 for suppression of mIDH1R132H
# Protocol: The inhibitory activity of the candidate probes against mIDH1 was evaluated by enzymatic assays with serially diluted solutions of the non-labeled compounds using a commercially available assay kit (IDH1 (R132H) from BPS Bioscience, San Diego, CA, USA). IC50 values were determined with GraphPad Prism 4.00 by fitting the resulting dose-response curves with the Hill function.
# Data are shown as mean ± standard deviation (n = 3). For additional fit parameters and 95% confidence intervals, see Table S12 in Section S4.1.4 of Supplementary Materials. TEXT PRINTED IN THE PICTURE: (S)-2: IC50 [nM]: 102 | (R)-2: IC50 [nM]: 1358 | 4: IC50 [nM]: 713 | 5: IC50 [nM]: 8279
# 4.1.4. Inhibitory potency (IC50)
# Values in parenthesis indicate 95% confidence intervals.
# [4] = stability of reference compounds in DMSO; assay type: physicochemical; conditions: room temperature, at least 28 h, non-labeled reference compounds
# Protocol: The in vitro stability of the radiolabeled probes was evaluated by incubation studies with phosphate-buffered saline (PBS) and rat serum.
# A solution of the corresponding reference compound in DMSO (1 mg/mL) was incubated at room temperature for 28–30 h, during which aliquots were removed every few hours and analyzed by analytical HPLC. The fraction of intact reference compound at each time point was calculated by dividing the peak area of the reference compound by the total area of all peaks in the chromatogram and plotted as a function of time.
# T1 sequence (O75874 whole entry R132H): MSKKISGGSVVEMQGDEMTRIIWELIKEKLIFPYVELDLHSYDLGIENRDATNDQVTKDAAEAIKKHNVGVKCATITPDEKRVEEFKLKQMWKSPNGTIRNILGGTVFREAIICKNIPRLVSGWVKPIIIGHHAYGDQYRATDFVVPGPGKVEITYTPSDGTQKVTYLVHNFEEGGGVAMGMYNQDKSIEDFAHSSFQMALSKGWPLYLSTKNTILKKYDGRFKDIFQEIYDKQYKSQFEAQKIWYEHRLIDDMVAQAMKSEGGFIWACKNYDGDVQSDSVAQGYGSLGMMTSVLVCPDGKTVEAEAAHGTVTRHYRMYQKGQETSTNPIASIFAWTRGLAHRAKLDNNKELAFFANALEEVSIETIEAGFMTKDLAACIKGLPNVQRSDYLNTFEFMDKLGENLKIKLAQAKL
SMILES,logD [2],cellular uptake (U87-mIDH cells) [% per 100 µg protein],Amax (fit parameter) (mIDH1R132H [3]),Amin (fit parameter) (mIDH1R132H [3]),Hill slope (mIDH1R132H [3]),IC50 (mIDH1R132H [3]) [nM],decomposition in DMSO [4],further results
COc1cc(NCc2cc3cc(Cl)ccc3[nH]c2=O)ccc1C#N [compound 3],–,–,–,–,–,–,–,Selectivity (ratio of biochemical IC50 values for mIDH1R132H and the wildtype enzyme) (mIDH1R132H [1]): > 700
N#Cc1ccc(NCc2cc3cc(F)ccc3[nH]c2=O)cc1OCC[18F] [[^18F]5],2.72 ± 0.06,3.2 ± 0.6,–,–,–,–,–,logP ([2]; read-out: logP): 2.77 ± 0.03; cellular uptake (U87-WT cells): 3.7 ± 0.6 % per 100 µg protein
C[C@@H](Nc1ccc(C#N)n(C)c1=O)c1cc2cc([18F])ccc2[nH]c1=O [(R)-[^18F]2],2.51 ± 0.11,0.5 ± 0.1,–,–,–,–,–,logP [2]: negative
"COc1cc(NCc2cc3cc(F)ccc3[nH]c2=O)ccc1C#N [compound 4, 4-{[(6-Fluoro-2-oxo-1,2-dihydroquinolin-3-yl)methyl]amino}-2-methoxybenzonitrile]",–,–,98 (96−100) %,1.8 (0.6−3.0) %,2.8 (2.5−3.0),713,less than 10%,fold lower potency than (S)-2 in functional assays (mIDH1R132H [3]): roughly 7 fold
"C[C@H](Nc1ccc(C#N)n(C)c1=O)c1cc2cc(F)ccc2[nH]c1=O [(S)-2, (S)-5-[{1-(6-Fluoro-2-oxo-1,2-dihydroquinoline-3-yl)ethyl}amino]-1-methyl-6-oxo-1,6-dihydropyridine-2-carbonitrile]",–,–,95 (93−97) %,33 (30−35) %,5.6 (4.0−7.2),102,no decomposition,–
"N#Cc1ccc(NCc2cc3cc(F)ccc3[nH]c2=O)cc1OCCF [compound 5, 4-(((6-Fluoro-2-oxo-1,2-dihydroquinolin-3-yl)methyl)amino)-2-(2-fluoroethoxy)benzonitrile]",–,–,41 (36−45) %,3 (2−3) %,2.1 (1.6−2.7),8280,less than 10%,–
"C[C@@H](Nc1ccc(C#N)n(C)c1=O)c1cc2cc(F)ccc2[nH]c1=O [(R)-2, (R)-5-[{1-(6-Fluoro-2-oxo-1,2-dihydroquinoline-3-yl)ethyl}amino]-1-methyl-6-oxo-1,6-dihydropyridine-2-carbonitrile]",–,–,79 (72−87) %,28 (25−31) %,3.0 (1.3−4.8),1360,–,fold higher IC50 value relative to (S)-enantiomer (mIDH1R132H [3]): > 10 fold
C[C@H](Nc1ccc(C#N)n(C)c1=O)c1cc2cc([18F])ccc2[nH]c1=O [(S)-[^18F]2],2.51 ± 0.11,0.9 ± 0.2,–,–,–,–,–,fold higher cellular uptake than (R)-[^18F]2 (U87-mIDH cells): approx. 2 fold; cellular uptake (U87-WT cells): 1.2 ± 0.7 % per 100 µg protein
CC(Nc1ccc(C#N)n(C)c1=O)c1cc2cc(F)ccc2[nH]c1=O (centres unmarked) [mIDH-23],–,–,–,–,–,–,–,"IC50 (mIDH1R132H [1]; biochemical assays, read-out: IC50 (reported potency for inhibition of mIDH1R132H)): 23 nM; Selectivity (ratio of biochemical IC50 values for mIDH1R132H and the wildtype enzyme) (mIDH1R132H [1]): > 400"

# From paper PMC11356819 (Molecules, 2024)
